From patent US20130236610A1, “COMPOSITIONS AND METHODS FOR INHIBITING POTATO PATHOGENS” (UNIVERSITY OF IDAHO, priority 2010, published 2013)

How the values were obtained:
Assay type in all cases: cell-based
Colletotrichum coccodes [1] = experiment: Pure volatile in 1L jars above plates containing the pathogens, colony diameter (Example 2); settings: 2.5 μL/L volatile, 1L jar, 23 degree C
Procedure: (§1) […] were chosen as prototype volatiles to investigate the use of plant volatiles for the control of potato blemish pathogens. Three main potato blemish pathogens were used in the study: Erwinia carotovora, Colletotrichum coccodes and Helminthosporium solani.
(§2) 1L jars were used. Pure volatile (2.5-10 μt/L) was inserted into the jars onto the side of the jar above 6cm plates containing the pathogens. Controls and treatments were incubated at 23 degree C. until the control filled the plate. Diameter of the colony (mm) from control and treatments were evaluated daily using calipers.

Erwinia carotovora [2] = experiment: as above; settings: 2.5 μL/L volatile, 1L jar, 23 degree C
Procedure: as §1, §2

Helminthosporium solani [3] = experiment: as above; settings: 2.5 μL/L volatile, 1L jar, 23 degree C
Procedure: as §1, §2

Erwinia carotovora [4] = experiment: Volatile exposure of pathogen cultures on PDA in sealed mason jars, radial growth (Example 1); settings: pure volatile, 7 days at 23° C
Colletotrichum coccodes [5] = experiment: as above; settings: pure volatile, 7 days at 23° C
Procedure: (§3) In this study, acetaldehyde and 2E-hexenal were chosen as prototype volatiles in order to investigate the use of plant volatiles for the control of potato blemish pathogens in fresh-pack potato packaging. The two main potato blemish disease pathogens, Colletotrichum coccodes (black dot) and Helminthosporium solani (silver scurf) were used in the study. Cultures of the two pathogens, grown on PDA, were exposed to the pure volatiles in sealed mason jars for 7 days at 23° C. Radial fungal growth and the concentration of the volatile were measured daily and the concentration required to inhibit fungal growth was determined. […] 2E-hexenal could be used to control these and other pathogens and extend the storability and shelf-life of potatoes.

Helminthosporium solani [6] = experiment: as above; settings: pure volatile, 7 days at 23° C
Procedure: as §3

Measured: inhibition of pathogen growth

CCC/C=C/C=O [2E-Hexanal]
nearly complete inhibition: Colletotrichum coccodes [1] | Erwinia carotovora [2] | Helminthosporium solani [3]

CCC/C=C/C=O [2E-hexenal]
nearly complete inhibition: Erwinia carotovora [4] | Colletotrichum coccodes [5] | Helminthosporium solani [6]
